Measurements taken from article PMC7544691, “Discovery of a novel EGFR ligand DPBA that degrades EGFR and suppresses EGFR-positive NSCLC growth” (Signal Transduction and Targeted Therapy, 2020).

Molecular target: T1, Epidermal growth factor receptor (EGFR) (Homo sapiens, UniProt P00533)
T1 construct: extracellular domain (ECD), recombinant human
Experiment: MST with recombinant EGFR ECD (also BIAcore SPR, Kd […]; CETSA in A549 and H1975)
Format: binding

T1 sequence (P00533 25-645 limits assumed): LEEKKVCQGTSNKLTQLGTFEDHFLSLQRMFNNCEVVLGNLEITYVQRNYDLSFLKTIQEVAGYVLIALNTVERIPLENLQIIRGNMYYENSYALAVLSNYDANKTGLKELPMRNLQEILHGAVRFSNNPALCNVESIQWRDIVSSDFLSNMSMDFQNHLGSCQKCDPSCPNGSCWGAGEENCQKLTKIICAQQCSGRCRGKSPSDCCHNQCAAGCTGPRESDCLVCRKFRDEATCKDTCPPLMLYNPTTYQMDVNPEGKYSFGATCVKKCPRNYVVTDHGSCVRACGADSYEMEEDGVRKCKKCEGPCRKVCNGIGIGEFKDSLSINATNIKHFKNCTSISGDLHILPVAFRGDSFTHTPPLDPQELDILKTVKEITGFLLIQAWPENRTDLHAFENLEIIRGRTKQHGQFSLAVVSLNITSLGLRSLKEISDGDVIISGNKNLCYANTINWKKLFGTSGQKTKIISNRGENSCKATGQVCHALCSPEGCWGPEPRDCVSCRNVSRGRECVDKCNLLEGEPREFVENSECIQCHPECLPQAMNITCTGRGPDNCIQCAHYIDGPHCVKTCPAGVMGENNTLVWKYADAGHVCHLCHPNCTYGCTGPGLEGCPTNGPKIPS

`C=C(C)[C@@H]1CC[C@]2(C(=O)N3CCC(N4CCCCC4)CC3)CC[C@]3(C)[C@H](CC[C@@H]4[C@@]5(C)CC[C@H](O)[C@@](C)(CO)[C@@H]5CC[C@]43C)[C@@H]12` [compound 187, DPBA] gave a Kd of 38.4 ± 1.75 µM.
